Compound recovery data for two compounds are collected here from ChEMBL document CHEMBL3508693 (2016).

The nature of series [1]: % aliskiren recovered as M3 in urine following single intravenous administration of 10 mg.Kg-1 [14C] aliskiren hemifumarate in male rat. Format: ADME, organism-based, HAN:WIST(SPF). As to conditions: in vivo.
Series [2] is described as follows: % aliskiren hemifumarate recovered as M3 in urine and faeces following single oral dose of 300 mg [14C]SPP100 studied in healthy men. The note with it: human, in vivo, at 300 mg. It counts as ADME, organism-based, Urine/Feces.
The nature of series [3]: % aliskiren recovered as M3 in hydrolysed following single intravenous administration of 10 mg.Kg-1 [14C] aliskiren hemifumarate in male rat. It counts as ADME, organism-based, HAN:WIST(SPF), Bile. The note with it: in vivo.
Series [4] in a line: % aliskiren hemifumarate (0-168h) recovered as M3 in urine following single oral dose of [14C] aliskiren hemifumarate at 3 mg.Kg-1 level in marmoset. The note with it: in vivo. Format: ADME, organism-based, Callithrix jacchus.
A short description of series [5]: % of radioactivity recovered as M3 in plasma following oral administration of [14C] aliskiren hemifumarate at 100 mg.Kg-1 level in rat. It counts as ADME, organism-based, Albino HAN:WIST. The note with it: in vivo.
Series [6] in a line: % of radioactivity recovered as M3 in urine following intravenous administration of [14C] aliskiren hemifumarate at 10 mg.Kg-1 level in rat. Format: ADME, organism-based, Albino HAN:WIST. The note with it: in vivo.
Series [7] is described as follows: % aliskiren recovered as M3 of receiver rat following duodenal infusion of radioactivity through bile from donor rat treated with single intravenous administration of 10 mg.Kg-1 [14C] aliskiren hemifumarate. It counts as ADME, organism-based, HAN:WIST(SPF). As to conditions: in vivo.
The nature of series [8]: % aliskiren hemifumarate (0-72h) recovered as M3 in faeces following single oral dose of [14C] aliskiren hemifumarate at 3 mg.Kg-1 level in marmoset. It counts as ADME, organism-based, Callithrix jacchus, Feces. The note with it: in vivo.
A short description of series [9]: % aliskiren recovered as M3 in bile following single intravenous administration of 10 mg.Kg-1 [14C] aliskiren hemifumarate in male rat. As to conditions: in vivo. Format: ADME, organism-based, HAN:WIST(SPF).
Series [10] in a line: % aliskiren hemifumarate recovered as M3 in faeces following single oral dose of 300 mg [14C]SPP100 studied in healthy men. Format: ADME, organism-based, Feces. The note with it: human, in vivo, at 300 mg.
A short description of series [11]: % of radioactivity recovered as M3 in faeces following intravenous administration of [14C] aliskiren hemifumarate at 10 mg.Kg-1 level in rat. Format: ADME, organism-based, Albino HAN:WIST, Feces. The note with it: in vivo.
The nature of series [12]: % aliskiren hemifumarate (0-168h) recovered as M3 in urine following single intravenous dose of [14C] aliskiren hemifumarate at 1 mg.Kg-1 level in marmoset. It counts as ADME, organism-based, Callithrix jacchus. The note with it: in vivo.
A short description of series [13]: % aliskiren hemifumarate (0-72h) recovered as M3 in faeces following single intravenous dose of [14C] aliskiren hemifumarate at 1 mg.Kg-1 level in marmoset. The note with it: in vivo. Format: ADME, organism-based, Callithrix jacchus, Feces.
A short description of series [14]: % aliskiren hemifumarate recovered as M3 in urine following single oral dose of 300 mg [14C]SPP100 studied in healthy men. As to conditions: human, in vivo, at 300 mg. Format: ADME, organism-based.
Series [15] can be described thus: % of radioactivity recovered as M3 in plasma following intravenous administration of [14C] aliskiren hemifumarate at 10 mg.Kg-1 level in rat. Format: ADME, organism-based, Albino HAN:WIST. As to conditions: in vivo.
The nature of series [16]: % of radioactivity recovered as M3 in urine following oral administration of [14C] aliskiren hemifumarate at 100 mg.Kg-1 level in rat. As to conditions: in vivo. Format: ADME, organism-based, Albino HAN:WIST.
Series [17] is described as follows: % of radioactivity recovered as M3 in faeces following oral administration of [14C] aliskiren hemifumarate at 100 mg.Kg-1 level in rat. Format: ADME, organism-based, Albino HAN:WIST, Feces. As to conditions: in vivo.
Series [18] is described as follows: % aliskiren recovered as M4 in hydrolysed following single intravenous administration of 10 mg.Kg-1 [14C] aliskiren hemifumarate in male rat. Format: ADME, organism-based, HAN:WIST(SPF), Bile. As to conditions: in vivo.
The nature of series [19]: % aliskiren hemifumarate recovered as M4 in urine following single oral dose of 300 mg [14C]SPP100 studied in healthy men. Format: ADME, organism-based. The note with it: human, in vivo, at 300 mg.
Series [20] is described as follows: % of radioactivity recovered as M4 in urine following intravenous administration of [14C] aliskiren hemifumarate at 10 mg.Kg-1 level in rat. It counts as ADME, organism-based, Albino HAN:WIST. The note with it: in vivo.
Series [21] can be described thus: % aliskiren recovered as M4 in urine following single intravenous administration of 10 mg.Kg-1 [14C] aliskiren hemifumarate in male rat. Format: ADME, organism-based, HAN:WIST(SPF). The note with it: in vivo.
Series [22] can be described thus: % of radioactivity recovered as M4 in plasma following intravenous administration of [14C] aliskiren hemifumarate at 10 mg.Kg-1 level in rat. The note with it: in vivo. It counts as ADME, organism-based, Albino HAN:WIST.
Series [23] is described as follows: % aliskiren hemifumarate (0-168h) recovered as M4 in urine following single intravenous dose of [14C] aliskiren hemifumarate at 1 mg.Kg-1 level in marmoset. It counts as ADME, organism-based, Callithrix jacchus. The note with it: in vivo.
Series [24] can be described thus: % aliskiren hemifumarate (0-168h) recovered as M4 in urine following single oral dose of [14C] aliskiren hemifumarate at 3 mg.Kg-1 level in marmoset. It counts as ADME, organism-based, Callithrix jacchus. As to conditions: in vivo.
Series [25] is described as follows: % aliskiren recovered as M4 in bile following single intravenous administration of 10 mg.Kg-1 [14C] aliskiren hemifumarate in male rat. Format: ADME, organism-based, HAN:WIST(SPF). As to conditions: in vivo.
The nature of series [26]: % aliskiren recovered as M4 of receiver rat following duodenal infusion of radioactivity through bile from donor rat treated with single intravenous administration of 10 mg.Kg-1 [14C] aliskiren hemifumarate. As to conditions: in vivo. It counts as ADME, organism-based, HAN:WIST(SPF).
A short description of series [27]: % aliskiren hemifumarate (0-72h) recovered as M4 in faeces following single oral dose of [14C] aliskiren hemifumarate at 3 mg.Kg-1 level in marmoset. It counts as ADME, organism-based, Callithrix jacchus, Feces. The note with it: in vivo.
Series [28] in a line: % of radioactivity recovered as M4 in plasma following oral administration of [14C] aliskiren hemifumarate at 100 mg.Kg-1 level in rat. It counts as ADME, organism-based, Albino HAN:WIST. As to conditions: in vivo.
The nature of series [29]: % of radioactivity recovered as M4 in faeces following intravenous administration of [14C] aliskiren hemifumarate at 10 mg.Kg-1 level in rat. Format: ADME, organism-based, Albino HAN:WIST, Feces. As to conditions: in vivo.
Series [30] is described as follows: % of radioactivity recovered as M4 in urine following oral administration of [14C] aliskiren hemifumarate at 100 mg.Kg-1 level in rat. Format: ADME, organism-based, Albino HAN:WIST. As to conditions: in vivo.
Series [31] is described as follows: % aliskiren hemifumarate recovered as M4 in urine and faeces following single oral dose of 300 mg [14C]SPP100 studied in healthy men. As to conditions: human, in vivo, at 300 mg. Format: ADME, organism-based, Urine/Feces.
Series [32] in a line: % of radioactivity recovered as M4 in faeces following oral administration of [14C] aliskiren hemifumarate at 100 mg.Kg-1 level in rat. Format: ADME, organism-based, Albino HAN:WIST, Feces. The note with it: in vivo.
Series [33] can be described thus: % aliskiren hemifumarate (0-72h) recovered as M4 in faeces following single intravenous dose of [14C] aliskiren hemifumarate at 1 mg.Kg-1 level in marmoset. Format: ADME, organism-based, Callithrix jacchus, Feces. The note with it: in vivo.
A short description of series [34]: % aliskiren hemifumarate recovered as M4 in faeces following single oral dose of 300 mg [14C]SPP100 studied in healthy men. It counts as ADME, organism-based, Feces. As to conditions: human, in vivo.

SMILES strings stand for the structures. Bounds are passed on as bounds.

With `COc1ccc(C[C@@H](C[C@H](N)[C@@H](O)C[C@H](C(=O)NCC(C)(C)C(N)=O)C(C)C)C(C)C)cc1OCCCO`, the Compound recovery in series [1] is 4.7%; in [2] it was less than 0.6%; in series [3], 15.5%; in series [4] it was 0.1%; in [5] it was “<= 2%”; in series [6], “<= 2%”. Besides, the Compound recovery was 15.2% in series [7]; 2% in [8]; 15.9% in series [9]; 0.6% in series [10]; greater than 2% in [11]; 0.4% in series [12]. The Compound recovery in series [13] is 17%; in series [14], less than 0.1%; in [15], “OUTCOME = Not detected or not investigated”; in [16], “<= 2%”; in series [17], “<= 2%”.
For the compound `COc1ccc(C[C@@H](C[C@H](N)[C@@H](O)C[C@H](C(=O)NCC(C)(C)C(N)=O)C(C)C)C(C)C)cc1O`, the Compound recovery in [18] is 4.5%; in series [19], less than 0.1%; in series [20] it was “OUTCOME = Not detected or not investigated”; in series [21], 0.9%; in series [22], “OUTCOME = Not detected or not investigated”; in [23] it was 0.1%. Moreover, the Compound recovery was 0% in series [24]; 1.4% in [25]; “OUTCOME = Not detected” in [26]; 1% in series [27]; “<= 2%” in series [28]; “OUTCOME = Not detected or not investigated” in [29]. Further, the Compound recovery result in [30] is listed as “<= 2%”; in [31], less than 0.1%; in [32], “<= 2%”; in series [33], 2%; in series [34] it was “OUTCOME = Not detected”.
